Results reported in patent publication US11084829B2, “Ubiquitin-specific-processing protease 7 (USP7) modulators and uses thereof” (RAPT THERAPEUTICS, INC., priority 2018, dated 2021).
Where two headings read alike, the source gives them in different places. Each block holds one compound with its values, some of them ahead of it.

How the values were obtained:
NCI-H929 = assay: Cell viability (CellTiter-Glo), NCI-H929; assay type: cell-based; conditions: Homo sapiens; NCI-H929, MM, p53 wild-type
Procedure: (§1) CHP-134 was purchased from Sigma Aldrich, MOLM-13 was purchased from AddexBio, and NB-1 was purchased from Sekisui XenoTech. All other cell lines were purchased from American Type Culture Collection. For all cell lines, identity was confirmed by short tandem repeat profiling and culturing was performed in recommended growth medium. For studies evaluating cellular effects of compound treatment, 250 to 2,000 cells in 40 μl of recommended medium were seeded per well in 384-well plates (Corning 3764). DMSO-solubilized compounds were added in duplicate in a two-fold dilution series using a D300e Digital Dispenser (Hewlett-Packard). Following a 5-day incubation, cell viability was measured using CellTiter-Glo (Promega) following the manufacturer's instructions. Luminescence was measured using a CLARIOstar plate reader (BMG LABTECH) and normalized to that of DMSO-treated cells. IC50 values were determined by non-linear regression using a 4-parameter fit in Prism (GraphPad Software). Inhibitor profiling of the 430-cell line panel was conducted and analyzed similarly.
(§2) USP7 inhibition by the compounds of Examples 31 and 124 reduced the viability of several p53-wild type blood cancer cell lines, including M07e, OCI-AML5 and MOLM13, in vitro as shown in the following Table 3. Idasanutlin was used as a positive control, and as expected these cell lines were also sensitive to this compound.

SK-N-DZ = assay: Cell viability (CellTiter-Glo), SK-N-DZ; assay type: cell-based; conditions: Homo sapiens, neuroblastoma, MYCN-amplified, p53-mutant
Procedure: as §1
(§3) In addition to the many p53 wild-type cell lines in the cell line panel that were sensitive to USP7 inhibition, a subset of p53 mutant cell lines that were inhibited by our USP7 inhibitors were identified and are shown in Table 5.

SH-SY5Y = assay: Cell viability (CellTiter-Glo), SH-SY5Y; assay type: cell-based; conditions: Homo sapiens, neuroblastoma, MYC amplified, p53 wild-type
Procedure: as §1
(§4) USP7 has been reported to stabilize MYCN (also referred to as MYCN proto-oncogene, a gene that is a member of the MYC family which is over-expressed in a variety of tumors). Since MYCN amplification is an established driver mutation in neuroblastoma, the effect of USP7 inhibition on a panel of p53 wild-type, MYCN- or MYC-amplified neuroblastoma cell lines was tested. The USP7 inhibitors of Examples 31 and 124 reduced viability of all three MYCN-amplified and two MYC-amplified neuroblastoma cell lines tested as shown in Table 4. Idasanutlin was used as a positive control, and as expected these cell lines were also sensitive to this compound.

CHP-134 = assay: Cell viability (CellTiter-Glo), CHP-134; assay type: cell-based; conditions: Homo sapiens; CHP-134, neuroblastoma, MYCN amplified, p53 wild-type
Procedure: as §1, §4

MM.1S xenograft = MM.1S xenograft model in NOD-SCID mice; assay type: in vivo
Procedure: MM. 1S and H526 xenograft studies were conducted according to the guidelines approved by the Applicant's Institutional Animal Care and Use Committee (IACUC). MM.1S cells were inoculated in PBS into irradiated NOD/SCID mice, while H526 cells were inoculated in PBS/Matrigel (Corning) into Nu/Nu mice (Jackson Laboratories). Mice were randomized into groups when mean tumor size reached 150 mm^3 (MM.1S) or 50-100 mm^3 (H526), respectively, and drug administration by oral gavage was started on day of randomization. Tumor volumes and body weights were subsequently measured twice per week. Tumor volumes were calculated using the formula: V=0.5(A×B^2), where A and B are the long and short diameters of the tumor, respectively.
(§5) The effects of USP7 inhibition were assessed in vivo in the MM.1S xenograft model in NOD-SCID mice via daily oral dosing of the USP7 inhibitor 3-((7-(5-chloro-2-(((2S,6S)-2,6-dimethylpiperazin-1-yl)methyl)-3-methylphenyl)thieno[3,2-b]pyridin-2-yl)methyl)-3-azabicyclo[3.1.0]hexane-2,4-dione (the compound of Example 31) at 50 mg/kg and 100 mg/kg. […] However, brief dosing holidays allowed the mice to recover and dosing to continue.

[1] = Tolerability in tumor-free NOD-SCID mice; assay type: in vivo; conditions: daily oral 50 mg/kg and 100 mg/kg, preliminary experiments
Procedure: as §5

H526 = assay: Cell viability (CellTiter-Glo), H526; assay type: cell-based; conditions: Homo sapiens, NCI-H526
Procedure: as §1, §3
The effect of pharmacological inhibition of USP7 on the viability of the p53 mutant small cell lung cancer cell line, H526 was further evaluated. […] In contrast, idasanutlin, whose inhibitory effect is dependent on a functional p53 pathway, had no effect.

MM.1S = assay: Cell viability (CellTiter-Glo), MM.1S; assay type: cell-based; conditions: Homo sapiens, MM1.S, p53 wild-type
Procedure: as §1, §2

NB-1 = assay: Cell viability (CellTiter-Glo), NB-1; assay type: cell-based; conditions: Homo sapiens, NB1; NB-1, neuroblastoma, MYCN amplified, p53 wild-type
Procedure: as §1, §4

HCC1937 = assay: Cell viability (CellTiter-Glo), HCC1937; assay type: cell-based; conditions: Homo sapiens; HCC1937, breast, triple-negative, BRCA1 mutant, p53-mutant
Procedure: as §1, §3

MOLM13 = assay: Cell viability (CellTiter-Glo), MOLM13; assay type: cell-based; conditions: Homo sapiens, MOLM-13; MOLM13, AML, p53 wild-type
Procedure: as §1, §2

EOL-1 = assay: Cell viability (CellTiter-Glo), EOL-1; assay type: cell-based; conditions: Homo sapiens, EOL1; EOL-1, AML, p53 wild-type
Procedure: as §1, §2

OCI-AML5 = assay: Cell viability (CellTiter-Glo), OCI-AML5; assay type: cell-based; conditions: Homo sapiens, OCI-AML-5, p53 wild-type
Procedure: as §1, §2

USP7 = USP7 (Homo sapiens, UniProt Q93009); assay: USP7 inhibitory potency (IC50); assay type: biochemical
Procedure: Activity for compounds described herein is provided in Table 2, wherein potency levels are provided as follows: (Potency: USP7 IC50: A<0.01 μM; B=0.01-0.1 μM; C=>0.1 μM.

MOLP8 = assay: Cell viability (CellTiter-Glo), MOLP8; assay type: cell-based; conditions: Homo sapiens, MOLP-8; MOLP8, MM, p53 wild-type
Procedure: as §1, §2

M07e = assay: Cell viability (CellTiter-Glo), M07e; assay type: cell-based; conditions: M-07e, AML, p53 wild-type
Procedure: as §1, §2

LA-N-2 = assay: Cell viability (CellTiter-Glo), LA-N-2; assay type: cell-based; conditions: LA-N-2, neuroblastoma, MYCN-amplified, p53-mutant
Procedure: as §1, §3

Chain of USP7 (Q93009 whole entry): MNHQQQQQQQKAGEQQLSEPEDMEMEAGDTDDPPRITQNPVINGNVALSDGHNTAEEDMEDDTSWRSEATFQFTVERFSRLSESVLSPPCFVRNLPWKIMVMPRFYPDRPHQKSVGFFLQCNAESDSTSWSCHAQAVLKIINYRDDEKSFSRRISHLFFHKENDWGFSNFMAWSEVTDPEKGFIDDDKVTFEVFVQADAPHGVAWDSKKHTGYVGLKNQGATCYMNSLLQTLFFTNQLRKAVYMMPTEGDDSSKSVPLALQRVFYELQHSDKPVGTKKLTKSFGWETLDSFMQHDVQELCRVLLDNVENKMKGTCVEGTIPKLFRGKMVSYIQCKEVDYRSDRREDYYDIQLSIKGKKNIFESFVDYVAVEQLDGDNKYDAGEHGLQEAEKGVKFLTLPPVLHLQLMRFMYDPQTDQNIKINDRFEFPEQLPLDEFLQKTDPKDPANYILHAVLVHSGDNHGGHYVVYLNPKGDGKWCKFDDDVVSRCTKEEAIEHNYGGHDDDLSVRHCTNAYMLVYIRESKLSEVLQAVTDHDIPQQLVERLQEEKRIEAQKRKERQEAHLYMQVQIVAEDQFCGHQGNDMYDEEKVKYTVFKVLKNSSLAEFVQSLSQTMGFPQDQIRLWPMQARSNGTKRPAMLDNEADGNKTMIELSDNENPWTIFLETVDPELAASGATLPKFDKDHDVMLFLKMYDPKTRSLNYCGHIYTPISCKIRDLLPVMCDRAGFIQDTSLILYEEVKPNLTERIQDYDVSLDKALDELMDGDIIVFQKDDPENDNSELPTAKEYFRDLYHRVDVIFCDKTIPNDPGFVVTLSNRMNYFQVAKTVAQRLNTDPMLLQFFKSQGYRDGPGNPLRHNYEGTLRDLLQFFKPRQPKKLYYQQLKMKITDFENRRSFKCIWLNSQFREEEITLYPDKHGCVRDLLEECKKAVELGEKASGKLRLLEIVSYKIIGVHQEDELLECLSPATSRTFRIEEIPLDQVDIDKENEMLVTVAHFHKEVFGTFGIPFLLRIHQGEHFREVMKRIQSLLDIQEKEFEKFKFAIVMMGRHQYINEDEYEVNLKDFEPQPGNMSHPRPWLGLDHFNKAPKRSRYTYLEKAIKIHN

SMILES: Cc1cc(Cl)cc(-c2ccnc3cc(CN4C(=O)C5CC5C4=O)sc23)c1CN1[C@@H](C)CNC[C@@H]1C (stereo partly drawn) [Example 31, 3-((7-(5-chloro-2-(((2S,6S)-2,6-dimethylpiperazin-1-yl)methyl)-3-methylphenyl)thieno[3,2-b]pyridin-2-yl)methyl)-3-azabicyclo[3.1.0]hexane-2,4-dione]
- CC50 (NCI-H929): 400 nM
- CC50 (SK-N-DZ): 200 nM
- CC50 (SH-SY5Y): 1800 nM
- CC50 (CHP-134): 500 nM
- tumor growth (MM.1S xenograft; MM.1S xenograft, NOD-SCID mice, daily oral dosing at 50 mg/kg and 100 mg/kg, FIG. 1A): effectively inhibited MM.1S tumor growth
- survival (MM.1S xenograft; MM.1S xenograft, NOD-SCID mice, daily oral dosing at 50 mg/kg and 100 mg/kg, FIG. 1B): prolonged survival in a dose-dependent manner
- body weight (MM.1S xenograft; tumor-bearing NOD-SCID mice, longer-term xenograft study, daily oral 50 and 100 mg/kg, recovered with brief dosing holidays): dose-dependent body weight loss in a fraction of mice
- tolerability [1]: well tolerated
- CC50 (H526; H526, lung, small cell, p53-mutant, read-out: CC50): 500 nM
- CC50 (H526; H526, p53 mutant small cell lung cancer, CellTiter-Glo assay, read-out: CC50 (viability of H526 in vitro)): 500 nM
- CC50 (MM.1S): 100 nM
- CC50 (NB-1): 600 nM
- CC50 (HCC1937): 100 nM
- CC50 (MOLM13): 100 nM
- CC50 (EOL-1): 40 nM
- CC50 (OCI-AML5): 200 nM
- IC50 (USP7): < 10 nM
- CC50 (MOLP8): 200 nM
- CC50 (M07e): 100 nM
- CC50 (LA-N-2): 600 nM

SMILES: Cc1cc(Cl)cc(-c2ccnc3c(F)c(CN4C(=O)C5C(C4=O)C5(C)C)sc23)c1C[C@@H]1CNCCO1 (stereo partly drawn) [Example 146, 3-((7-(5-chloro-3-methyl-2-(((R)-morpholin-2-yl)methyl)phenyl)-3-fluorothieno[3,2-b]pyridin-2-yl)methyl)-6,6-dimethyl-3-azabicyclo[3.1.0]hexane-2,4-dione]
- IC50 (USP7): 10 to 100 nM

SMILES: Cc1ccc(CN2CCNC[C@@H]2C)c(-c2ncnc3cc(CN4C(=O)C5CC5C4=O)sc23)c1 (stereo partly drawn) [Example 62, 3-((4-(5-methyl-2-(((S)-2-methylpiperazin-1-yl)methyl)phenyl)thieno[3,2-d]pyrimidin-6-yl)methyl)-3-azabicyclo[3.1.0]hexane-2,4-dione]
- IC50 (USP7): > 100 nM

SMILES: C[C@H]1CNCCN1Cc1c(F)cccc1-c1ncnc2cc(CN3C(=O)C4CC4C3=O)sc12 (stereo partly drawn) [Example 72, 3-((4-(3-fluoro-2-(((S)-2-methylpiperazin-1-yl)methyl)phenyl)thieno[3,2-d]pyrimidin-6-yl)methyl)-3-azabicyclo[3.1.0]hexane-2,4-dione]
- IC50 (USP7): > 100 nM

Second part, the compound after the results:

- IC50 (USP7): < 10 nM
SMILES: Cc1cc(Cl)cc(-c2ncnc3cc(CN4C(=O)CN(CC(F)F)C4=O)sc23)c1CN1[C@@H](C)CNC[C@@H]1C [Example 277, 3-((4-(5-chloro-2-(((2S,6S)-2,6-dimethylpiperazin-1-yl)methyl)-3-methylphenyl)thieno[3,2-d]pyrimidin-6-yl)methyl)-1-(2,2-difluoroethyl)imidazolidine-2,4-dione]

- IC50 (USP7): 10 to 100 nM
SMILES: Cc1cc(Cl)cc(-c2ncnc3cc(CN4C(=O)C5CC5C4=O)sc23)c1C[C@H]1CNCC(C)(C)O1 (stereo partly drawn) [Example 213, 3-((4-(5-chloro-2-(((S)-6,6-dimethylmorpholin-2-yl)methyl)-3-methylphenyl)thieno[3,2-d]pyrimidin-6-yl)methyl)-3-azabicyclo[3.1.0]hexane-2,4-dione]

- IC50 (USP7): < 10 nM
SMILES: Cc1cc(Cl)cc(-c2ccnc3cc(CN4C(=O)C5C(C4=O)C5(C)C)sc23)c1CN1C[C@@H](C)NC[C@@H]1C (stereo partly drawn) [Example 39, 3-((7-(5-chloro-2-(((2S,5R)-2,5-dimethylpiperazin-1-yl)methyl)-3-methylphenyl)thieno[3,2-b]pyridin-2-yl)methyl)-6,6-dimethyl-3-azabicyclo[3.1.0]hexane-2,4-dione]

- IC50 (USP7): < 10 nM
SMILES: CN1CCC(=O)N(Cc2cc3ncnc(-c4cc(Cl)cc(Cl)c4CC4CNCC(C)(C)O4)c3s2)C1=O (stereo not drawn) [Example 210, 3-((4-(3,5-dichloro-2-((6,6-dimethylmorpholin-2-yl)methyl)phenyl)thieno[3,2-d]pyrimidin-6-yl)methyl)-1-methyldihydropyrimidine-2,4(1H,3H)-dione]
